Earlier results as cited in patent US20100242127A1, “METHODS TO IDENTIFY MODULATORS OF B-RAF PROTEIN KINASE AND THEIR USE FOR THE TREATMENT OF ANXIETY AND DEPRESSION” (HELMHOLTZ ZENTRUM MUNCHEN, priority 2007, published 2010).

Test system: Mek
Details: mouse brain

PD184161
behavioural phenotype after acute blockade of Mek: depressive-like phenotype | effect on behavioural actions of antidepressants (acute): counteract the behavioural actions of antidepressants
